The values below are quoted from earlier work in patent publication US20240365792A1, “Pest Control Formulations and Uses Thereof” (priority 2021, published 2024).

One data set has as its target acetylcholinesterase (Homo sapiens, UniProt P22303). The settings on record: in humans.
For data set [1] the following is noted: direct application to the skin.
A further data set relates to salamander larvae. The settings on record: in vivo.
The test system of a further data set is insects. The conditions noted are these: compared with DEET.

acetylcholinesterase, sequence (P22303 32-614): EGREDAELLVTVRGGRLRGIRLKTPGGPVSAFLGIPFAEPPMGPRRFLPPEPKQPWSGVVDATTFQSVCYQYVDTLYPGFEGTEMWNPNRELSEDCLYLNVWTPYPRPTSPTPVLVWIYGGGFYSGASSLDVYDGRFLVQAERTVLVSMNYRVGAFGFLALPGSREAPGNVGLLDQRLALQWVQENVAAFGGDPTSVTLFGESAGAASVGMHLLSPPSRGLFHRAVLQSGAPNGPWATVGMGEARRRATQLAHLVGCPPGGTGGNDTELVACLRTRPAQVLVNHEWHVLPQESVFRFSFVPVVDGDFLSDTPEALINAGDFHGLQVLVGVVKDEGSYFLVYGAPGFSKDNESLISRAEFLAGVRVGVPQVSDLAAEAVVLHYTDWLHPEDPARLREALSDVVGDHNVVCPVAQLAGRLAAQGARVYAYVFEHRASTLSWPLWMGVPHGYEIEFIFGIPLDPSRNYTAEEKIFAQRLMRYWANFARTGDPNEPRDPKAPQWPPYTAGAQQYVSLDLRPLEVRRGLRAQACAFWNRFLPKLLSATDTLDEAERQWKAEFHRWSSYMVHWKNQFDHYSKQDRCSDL

As to `CCN(CC)C(=O)c1cccc(C)c1` [DEET, N,N-diethyl-3-methylbenzamide], on acetylcholinesterase, the inhibition of acetylcholinesterase entry was “inhibit acetylcholinesterase”. Moreover, the irritancy entry in data set [1] is recorded as “act as an irritant”.
Turning to `CCC(C)OC(=O)N1CCCCC1CCO` (centres unmarked) [icaridin], the “toxicity to salamander larvae” value in the data set with salamander larvae is “toxic to salamander larvae”. Further, in the data set on insects, the “effectiveness at repelling insects” value is listed as “as effective as DEET”. Further, the irritancy result in data set [1] is on record as “less irritating than DEET”.
